Test results from ChEMBL document CHEMBL1135247, “Benzimidazoles and isosteric compounds as potent and selective factor Xa inhibitors” (Bioorg Med Chem Lett, 2002).
pKi: −log10 of the molar value.

Key:
[1] = target: Vitamin K-dependent protein C (Homo sapiens, UniProt P04070); test: Tested for inhibitory activity against Activated protein C
[2] = target: T1, Coagulation factor X (Homo sapiens, UniProt P00742); test: Inhibition of Coagulation factor Xa
[3] = target: T1, Coagulation factor X; test: Tested for inhibitory activity against Coagulation factor Xa
[4] = target: Plasminogen (Homo sapiens, UniProt P00747); test: Tested for inhibitory activity against plasmin
Sequence of Plasminogen (P00747 97-580 limits assumed): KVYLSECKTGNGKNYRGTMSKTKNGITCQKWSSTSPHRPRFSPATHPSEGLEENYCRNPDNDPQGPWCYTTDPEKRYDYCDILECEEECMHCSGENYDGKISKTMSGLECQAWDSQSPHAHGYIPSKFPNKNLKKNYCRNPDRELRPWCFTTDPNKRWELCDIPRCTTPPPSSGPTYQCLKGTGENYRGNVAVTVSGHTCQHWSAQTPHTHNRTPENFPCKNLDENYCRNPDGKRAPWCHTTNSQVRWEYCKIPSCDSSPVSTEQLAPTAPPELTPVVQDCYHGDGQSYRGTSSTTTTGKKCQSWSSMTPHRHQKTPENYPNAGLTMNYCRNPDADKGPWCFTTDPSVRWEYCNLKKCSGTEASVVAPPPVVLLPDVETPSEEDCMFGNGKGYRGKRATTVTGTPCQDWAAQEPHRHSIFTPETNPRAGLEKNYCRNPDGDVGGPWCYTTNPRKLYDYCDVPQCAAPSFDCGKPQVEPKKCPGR
Sequence of Plasminogen (P00747 581-810 limits assumed): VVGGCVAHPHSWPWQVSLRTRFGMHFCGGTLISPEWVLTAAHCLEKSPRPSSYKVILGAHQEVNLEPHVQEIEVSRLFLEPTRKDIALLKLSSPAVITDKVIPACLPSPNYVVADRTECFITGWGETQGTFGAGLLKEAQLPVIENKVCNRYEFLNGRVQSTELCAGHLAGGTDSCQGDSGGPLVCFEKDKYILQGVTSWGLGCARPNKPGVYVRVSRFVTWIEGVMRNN

[5] = target: Tissue-type plasminogen activator (Homo sapiens, UniProt P00750); test: Tested for inhibitory activity against Tissue plasminogen activator
Sequence of Tissue-type plasminogen activator (P00750 whole entry): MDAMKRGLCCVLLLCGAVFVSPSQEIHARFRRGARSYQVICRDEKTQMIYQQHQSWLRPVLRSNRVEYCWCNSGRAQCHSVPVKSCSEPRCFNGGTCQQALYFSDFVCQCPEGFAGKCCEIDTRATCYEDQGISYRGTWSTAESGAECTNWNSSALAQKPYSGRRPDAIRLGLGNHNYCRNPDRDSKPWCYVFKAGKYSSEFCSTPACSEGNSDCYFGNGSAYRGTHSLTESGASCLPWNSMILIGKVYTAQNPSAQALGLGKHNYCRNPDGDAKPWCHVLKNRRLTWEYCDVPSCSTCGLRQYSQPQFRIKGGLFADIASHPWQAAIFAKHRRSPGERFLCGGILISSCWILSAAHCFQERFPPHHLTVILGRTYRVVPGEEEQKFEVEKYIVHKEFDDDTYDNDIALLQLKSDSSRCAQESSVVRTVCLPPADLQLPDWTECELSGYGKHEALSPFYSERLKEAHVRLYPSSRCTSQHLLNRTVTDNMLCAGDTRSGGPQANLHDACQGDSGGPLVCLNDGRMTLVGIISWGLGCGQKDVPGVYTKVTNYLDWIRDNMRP

[6] = target: Serine protease 1 (Homo sapiens, UniProt P07477); test: Tested for inhibitory activity against trypsin
Sequence of Serine protease 1 (P07477 whole entry): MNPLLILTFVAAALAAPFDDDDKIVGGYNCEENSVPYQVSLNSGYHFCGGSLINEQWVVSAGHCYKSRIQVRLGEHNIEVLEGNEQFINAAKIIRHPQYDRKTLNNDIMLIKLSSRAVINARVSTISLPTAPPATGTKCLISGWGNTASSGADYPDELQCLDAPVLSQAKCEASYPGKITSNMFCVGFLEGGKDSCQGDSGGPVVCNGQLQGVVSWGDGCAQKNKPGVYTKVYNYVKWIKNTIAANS

[7] = target: Prothrombin (Homo sapiens, UniProt P00734); test: Tested for inhibitory activity against thrombin
[8] = target: T1, Coagulation factor X; test: Tested for inhibitory against Coagulation factor Xa at a concentration of 3.9 uM

Sequence of Vitamin K-dependent protein C (P04070 43-197 limits assumed): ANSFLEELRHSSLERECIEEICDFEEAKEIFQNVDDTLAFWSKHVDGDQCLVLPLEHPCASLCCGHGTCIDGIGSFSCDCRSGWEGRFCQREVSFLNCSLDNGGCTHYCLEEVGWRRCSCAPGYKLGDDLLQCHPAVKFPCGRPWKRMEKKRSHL
Sequence of Vitamin K-dependent protein C (P04070 212-461 limits assumed): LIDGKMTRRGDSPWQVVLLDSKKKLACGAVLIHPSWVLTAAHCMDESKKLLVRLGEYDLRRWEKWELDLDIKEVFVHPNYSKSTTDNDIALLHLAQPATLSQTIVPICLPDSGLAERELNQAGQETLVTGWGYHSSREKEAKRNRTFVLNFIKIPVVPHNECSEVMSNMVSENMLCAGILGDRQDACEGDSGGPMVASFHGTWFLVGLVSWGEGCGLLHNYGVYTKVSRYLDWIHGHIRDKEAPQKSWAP
T1 sequence (P00742 41-179 limits assumed): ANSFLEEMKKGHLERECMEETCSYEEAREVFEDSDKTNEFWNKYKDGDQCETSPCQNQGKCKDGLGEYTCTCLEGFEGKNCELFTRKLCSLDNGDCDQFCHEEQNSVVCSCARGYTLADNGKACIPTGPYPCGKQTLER
T1 sequence (P00742 235-488 limits assumed): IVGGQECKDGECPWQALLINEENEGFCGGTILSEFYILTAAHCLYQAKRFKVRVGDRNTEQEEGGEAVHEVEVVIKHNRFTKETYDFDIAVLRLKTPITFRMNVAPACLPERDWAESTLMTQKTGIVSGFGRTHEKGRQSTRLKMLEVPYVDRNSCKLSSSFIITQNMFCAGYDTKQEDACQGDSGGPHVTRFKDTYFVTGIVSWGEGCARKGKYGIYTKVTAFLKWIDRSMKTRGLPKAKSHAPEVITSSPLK

pKi [2] | SMILES | further results
8.00 | Nc1ncnc2cc(CN3CCN(Cc4nc5ccc(Cl)cc5[nH]4)CC3=O)ccc12 | pKi [1]: < 4.74; pKi [3]: 7.38; pKi [4]: < 5.14; pKi [5]: < 5.06; pKi [6]: < 5.54; pKi [7]: < 5.40
< 5.92 | Nc1ncnc2cc(CN3CCN(Cc4nc5cc(Cl)c(Cl)cc5[nH]4)CC3=O)ccc12 | –
< 5.92 | Nc1ncnc2cc(CN3CCN(Cc4nc5cc(OC(F)(F)F)ccc5[nH]4)CC3=O)ccc12 | –
7.40 | N=C(N)c1ccc(CN2CCN(Cc3nc4ccc(Cl)cc4[nH]3)CC2=O)cc1 | –
< 5.92 | Nc1ncnc2cc(CN3CCN(Cc4nc5ccc(Cl)cc5o4)CC3=O)ccc12 | –
< 5.92 | Nc1ncnc2cc(CN3CCN(Cc4nc5cc(Cl)ccc5[nH]4)CC3)ccc12 | –
5.92 | Nc1ncnc2cc(CN3CCN(Cc4nc5cc(Cl)ccc5o4)CC3=O)ccc12 | –
7.77 | Nc1ncnc2cc(CN3CCN(Cc4nc5ccc(Br)cc5[nH]4)CC3=O)ccc12 | –
< 5.92 | Nc1ncnc2cc(CN3CCN(Cc4nc5ccc(Cl)cc5s4)CC3=O)ccc12 | –
7.62 | Nc1ncnc2cc(CN3CCN(Cc4cc5cc(Cl)ccc5[nH]4)CC3=O)ccc12 | pKi [1]: < 4.74; pKi [4]: < 5.14; pKi [5]: < 5.06; pKi [6]: < 5.54; pKi [7]: < 5.40
– | N=C(N)c1cccc(CN2CCN(Cc3nc4cc(Cl)ccc4[nH]3)CC2=O)c1 | inhibition [8]: 42%
6.92 | Cc1ccc2nc(CN3CCN(Cc4ccc5c(N)ncnc5c4)C(=O)C3)[nH]c2c1 | –
< 5.92 | N=C(N)c1cccc(CN2CCN(Cc3nc4ccc(Cl)cc4[nH]3)CC2=O)c1 | –
8.52 | Nc1ncnc2cc(CN3CCN(S(=O)(=O)c4nc5ccc(Cl)cc5[nH]4)CC3=O)ccc12 | pKi [1]: < 4.74; pKi [4]: < 5.14; pKi [5]: < 5.06; pKi [6]: < 5.54; pKi [7]: < 5.40
6.41 | Nc1ncnc2cc(CN3CCN(Cc4cc5ccc(Cl)cc5[nH]4)CC3=O)ccc12 | –
< 5.92 | Nc1ncnc2cc(CN3CCN(Cc4nc5ccc(C(F)(F)F)cc5[nH]4)CC3=O)ccc12 | –
6.54 | Cn1c(CN2CCN(Cc3ccc4c(N)ncnc4c3)C(=O)C2)nc2ccc(Cl)cc21 | –
5.92 | Nc1ncnc2cc(CN3CCN(Cc4nc5ccccc5[nH]4)CC3=O)ccc12 | –
